Measurements taken from article PMC6154319, “Intestinal Transport Characteristics and Metabolism of C-Glucosyl Dihydrochalcone, Aspalathin” (Molecules : A Journal of Synthetic Chemistry and Natural …, 2017).
Read-outs that look alike come from different tables or passages of the source. Marks after values point to notes of the source that are not given here.

Experiments:
[1] = Kinetic solubility assay (miniaturised shake flask); assay type: physicochemical; settings: 2 h, 25 °C, 2% DMSO
Method: The kinetic solubility assay was performed using a miniaturised shake flask method. A 10 mM stock solution of aspalathin was used to prepare calibration standards (10–220 µM) in dimethyl sulphoxide (DMSO), and to spike (1:50) duplicate aqueous samples of phosphate buffered saline (pH 6.5), 0.01 M HCl (pH 2), and FaSSIF (pH 6.5), with a final DMSO concentration of 2%. After shaking for 2 h at 25 °C, the solutions were filtered (multiscreen filter plates, 0.45 µm low-binding, hydrophilic polytetrafluoroethylene (PTFE), Merck) and analysed by means of HPLC-DAD (Agilent 1200 Rapid Resolution HPLC; Agilent Technologies, Inc., Santa Clara, CA, USA). Best fit calibration curves were constructed using the calibration standards, which were used to determine the solubility of the aqueous samples [43].

Caco-2 monolayer = assay: in vitro
Method: Validation of the Caco-2 transport experiments required consideration of three parameters, i.e., firstly, to determine the cytotoxic concentrations of synthetic aspalathin, secondly, the concentration of aspalathin required to ensure HPLC detection in the basolateral compartment, and finally, to assess whether the transport of aspalathin is concentration dependent.
Cells were cultured at 37 °C and 5% CO2 in 95% humidified air in Eagle’s Minimum Essential Medium (EMEM) containing sodium […] pyruvate, supplemented with 2 mM L-glutamine, 1% non-essential amino acids and 10% heat inactivated FBS. Cell cultures were split when 70%–80% confluent, using trypsin/ethylenediaminetetraacetic acid (EDTA). The culture medium, pre-warmed to 37 °C, was refreshed every 2–3 days. Cells were seeded at 1 × 10^4 cells/cm^2 and a sub-cultivation ratio of 1:3 was routinely used. Cells were seeded with the addition of 1% penicillin/streptomycin mixture (10,000 units/mL potassium penicillin and 10,000 µg/mL streptomycin sulphate) at 4 × 10^4 cells/cm^2 onto 0.4 µm polycarbonate 6-well inserts with an insert area of 4.52 cm^2. Cells were used for transport experiments when TEER values across wells were >300 Ω, typically 21–23 days post confluence. Only passages 50–60 were used to prevent phenotypic drift.
(§1) The cell monolayers were equilibrated briefly with transport buffer, pH 6.0 (HBSS with 2-(N-morpholino) ethanesulphonic acid (MES)) on the apical side and pH 7.4 (HBSS with HEPES) on the basolateral side, to remove traces of the culture media. Following this, transport buffers were added for 30 min prior to the addition of treatment (inhibitors were added during this step when required, as well as during the subsequent treatment incubation step). After equilibration, the plates containing transport medium were incubated for 30 min at 37 °C at 5% CO2 in 95% humidified air and the TEER value of the monolayer determined. […] For basolateral-to-apical compartment studies, 2.4 mL of treatment at the same concentrations in HBSS (pH 7.4), was added to the basolateral compartment.
(§2) To assess whether aspalathin was co-transported with glucose, its transport (100 µM) at both high (20.5 mM) and low (5.5 mM) glucose concentrations, mimicking the intestinal lumen glucose concentrations pre- and post-meals, was monitored. This was followed by experiments performed in the presence and absence of SGLT1 (100 µM phloridzin), GLUT2 (100 µM phloretin) and efflux, PgP (100 µM verapamil) inhibitors.
(§3) Samples (1.2 mL) were withdrawn from the basolateral or the apical compartment to measure the concentration of aspalathin uptake and efflux, respectively at 0, 0.5, 1, 1.5, and 2 h under sink conditions (the sample aliquot replaced with equal volume of relevant transport buffer). Sample aliquots (350 µL) were frozen in liquid nitrogen after the addition of ascorbic acid (35 µL of 10% solution) and stored at −65 °C until HPLC analysis. Results were corrected for dilution and expressed as cumulative transport (% of initial dose) as a function of time. Papp (cm/s) for bi-directional transport studies was calculated as previously described. Transport of other major flavonoids in the matrices, i.e., nothofagin, the 3-deoxy analogue of aspalathin and its flavone derivatives, orientin and isoorientin, were also determined.
Lucifer yellow (final concentration 0.1 mM) was used as a membrane integrity marker and co-incubated with the compounds and extracts.
HPLC-DAD analysis of samples from the apical and basolateral compartments was performed in duplicate on an Agilent 1200 system as previously described. Basolateral and apical samples taken after 2 h with pure aspalathin were also analysed using LC-MS (parameters described in [42]) to determine whether aspalathin metabolites were formed in the Caco-2 model.
All experiments were performed in triplicate and the data expressed as mean ± SD, unless otherwise indicated.

PgP = PgP (Homo sapiens, UniProt P08183); settings: aspalathin 100 µM; 100 µM verapamil (PgP)
Chain of PgP (P08183 whole entry): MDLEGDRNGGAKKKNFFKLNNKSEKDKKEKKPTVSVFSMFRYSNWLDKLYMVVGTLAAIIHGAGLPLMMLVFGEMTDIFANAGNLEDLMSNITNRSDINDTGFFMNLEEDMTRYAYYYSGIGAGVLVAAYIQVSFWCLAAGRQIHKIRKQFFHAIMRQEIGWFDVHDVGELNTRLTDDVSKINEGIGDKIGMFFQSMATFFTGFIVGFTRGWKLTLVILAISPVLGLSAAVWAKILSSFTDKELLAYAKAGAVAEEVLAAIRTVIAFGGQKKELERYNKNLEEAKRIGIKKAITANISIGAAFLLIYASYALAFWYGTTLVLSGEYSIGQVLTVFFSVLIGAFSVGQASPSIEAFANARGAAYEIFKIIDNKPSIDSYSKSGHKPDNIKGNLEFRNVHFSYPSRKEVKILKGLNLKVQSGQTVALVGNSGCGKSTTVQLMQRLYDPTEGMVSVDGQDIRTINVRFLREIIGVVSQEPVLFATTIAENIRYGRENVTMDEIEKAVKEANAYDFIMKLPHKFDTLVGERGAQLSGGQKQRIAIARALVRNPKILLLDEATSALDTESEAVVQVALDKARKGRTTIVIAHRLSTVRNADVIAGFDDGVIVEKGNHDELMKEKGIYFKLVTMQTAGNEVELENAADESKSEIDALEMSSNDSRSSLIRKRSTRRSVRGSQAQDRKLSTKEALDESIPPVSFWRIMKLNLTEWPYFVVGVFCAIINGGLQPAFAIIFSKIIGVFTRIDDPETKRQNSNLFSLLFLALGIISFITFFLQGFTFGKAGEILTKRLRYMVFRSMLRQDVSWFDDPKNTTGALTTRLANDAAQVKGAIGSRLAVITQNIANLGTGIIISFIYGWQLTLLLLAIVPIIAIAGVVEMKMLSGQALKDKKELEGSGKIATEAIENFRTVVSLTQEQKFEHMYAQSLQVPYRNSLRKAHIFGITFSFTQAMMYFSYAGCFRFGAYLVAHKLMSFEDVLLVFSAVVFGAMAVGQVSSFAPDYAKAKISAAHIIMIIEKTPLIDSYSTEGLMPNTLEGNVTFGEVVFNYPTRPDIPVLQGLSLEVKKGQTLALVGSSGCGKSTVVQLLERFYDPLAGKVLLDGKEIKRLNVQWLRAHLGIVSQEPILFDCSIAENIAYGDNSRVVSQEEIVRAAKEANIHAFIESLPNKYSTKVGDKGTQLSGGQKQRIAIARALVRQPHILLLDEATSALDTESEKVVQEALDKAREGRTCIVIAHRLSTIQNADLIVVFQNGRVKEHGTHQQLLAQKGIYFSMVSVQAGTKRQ
Method: as §1, §2, §3

SGLT1 = biological target: T1, SGLT1 (Homo sapiens, UniProt P13866); settings: aspalathin 100 µM; 100 µM phloridzin (SGLT1)
T1 sequence (P13866 1-664): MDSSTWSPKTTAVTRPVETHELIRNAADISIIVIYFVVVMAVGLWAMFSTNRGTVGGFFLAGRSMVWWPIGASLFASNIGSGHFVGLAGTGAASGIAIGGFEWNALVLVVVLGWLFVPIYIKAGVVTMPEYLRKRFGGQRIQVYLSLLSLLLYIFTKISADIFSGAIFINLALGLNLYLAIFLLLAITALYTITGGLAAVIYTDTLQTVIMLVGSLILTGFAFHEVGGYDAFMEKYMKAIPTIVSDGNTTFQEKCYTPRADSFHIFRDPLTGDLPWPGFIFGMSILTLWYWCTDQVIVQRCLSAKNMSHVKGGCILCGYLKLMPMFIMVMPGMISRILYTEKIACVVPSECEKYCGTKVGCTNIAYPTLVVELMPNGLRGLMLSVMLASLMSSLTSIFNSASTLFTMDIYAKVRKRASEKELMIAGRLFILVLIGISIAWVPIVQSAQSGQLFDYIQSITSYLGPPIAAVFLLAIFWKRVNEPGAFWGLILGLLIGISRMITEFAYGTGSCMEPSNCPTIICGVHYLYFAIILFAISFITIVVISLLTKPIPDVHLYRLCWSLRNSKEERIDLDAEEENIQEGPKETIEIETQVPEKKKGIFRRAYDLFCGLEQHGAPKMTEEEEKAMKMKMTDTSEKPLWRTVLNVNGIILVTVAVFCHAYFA
Method: as §1, §2, §3

intestinal epithelium = tested on: intestinal epithelium; design: method as in earlier work; settings: ref 37 Huang et al., cited from earlier work

O=C(CCc1ccc(O)c(O)c1)c1c(O)cc(O)c([C@@H]2O[C@H](CO)[C@@H](O)[C@H](O)[C@H]2O)c1O [Aspalathin]
Kinetic solubility at pH 2 ([1]; 0.01 M HCl (pH 2)): 153 µM | Kinetic solubility in FaSSIF at pH 6.5 ([1]; FaSSIF (pH 6.5)): 119 µM | Kinetic solubility at pH 6.5 ([1]; phosphate buffered saline (pH 6.5)): 123 µM | Papp a-b with high glucose (Caco-2 monolayer; Caco-2): 2.90 ± 0.75 × 10^−7 cm/s | Papp a-b − Inhibitor (Caco-2 monolayer; Caco-2): 1.73 ± 0.97 ×10^−6 cm/s | Papp b-a (Caco-2 monolayer; Caco-2): 2.15 ± 0.23 × 10^—6 cm/s | Papp b-a − Inhibitor (Caco-2 monolayer; Caco-2): 2.09 ± 0.23 ×10^−6 cm/s | Papp (cm/s) a-b × 10^−6 (Caco-2 monolayer; buffered solution of synthetic aspalathin, 1 µM): 2.28 ± 0.09 cm/s × 10^−6 | Papp (cm/s) a-b × 10^−6 (Caco-2 monolayer; from aspalathin-enriched green rooibos extract SB1, 0.38 mg/mL (153, 11, 17, 9 µM aspalathin, nothofagin, isoorientin, orientin)): 2.00 ± 1.10 cm/s × 10^−6 | Papp (cm/s) a-b × 10^−6 (Caco-2 monolayer; from semi-purified fraction PEF1, 0.15 mg/mL (149, 21, 12, 8 µM aspalathin, nothofagin, isoorientin, orientin)): 2.11 ± 0.20 cm/s × 10^−6 | Efflux Ratio + Inhibitor (verapamil) (PgP): 1.1 ^c | Papp a-b + Inhibitor (verapamil) (PgP): 1.84 ± 0.20 ^c ×10^−6 cm/s | Papp b-a + Inhibitor (verapamil) (PgP): 1.94 ± 0.68 ^c ×10^−6 cm/s | Efflux Ratio + Inhibitor (phloridzin) (SGLT1): 0.99 ^c | Papp a-b + Inhibitor (phloridzin) (SGLT1): 1.47 ± 1.10 ^c ×10^−6 cm/s | Papp b-a + Inhibitor (phloridzin) (SGLT1): 1.47 ± 0.9 ^c ×10^−6 cm/s | transport of aspalathin (Papp) (intestinal epithelium; equal concentration of pure aspalathin): 2.48 ± 0.03 × 10^−6 cm/s | transport of aspalathin (Papp) (intestinal epithelium; from a green rooibos extract solution): 3.49 ± 1.45 × 10^−6 cm/s
